pIC50: −log10 of the molar value.
Target: T1, HDAC6 (Homo sapiens, UniProt Q9UBN7)
T1 sequence (Q9UBN7 1-1215): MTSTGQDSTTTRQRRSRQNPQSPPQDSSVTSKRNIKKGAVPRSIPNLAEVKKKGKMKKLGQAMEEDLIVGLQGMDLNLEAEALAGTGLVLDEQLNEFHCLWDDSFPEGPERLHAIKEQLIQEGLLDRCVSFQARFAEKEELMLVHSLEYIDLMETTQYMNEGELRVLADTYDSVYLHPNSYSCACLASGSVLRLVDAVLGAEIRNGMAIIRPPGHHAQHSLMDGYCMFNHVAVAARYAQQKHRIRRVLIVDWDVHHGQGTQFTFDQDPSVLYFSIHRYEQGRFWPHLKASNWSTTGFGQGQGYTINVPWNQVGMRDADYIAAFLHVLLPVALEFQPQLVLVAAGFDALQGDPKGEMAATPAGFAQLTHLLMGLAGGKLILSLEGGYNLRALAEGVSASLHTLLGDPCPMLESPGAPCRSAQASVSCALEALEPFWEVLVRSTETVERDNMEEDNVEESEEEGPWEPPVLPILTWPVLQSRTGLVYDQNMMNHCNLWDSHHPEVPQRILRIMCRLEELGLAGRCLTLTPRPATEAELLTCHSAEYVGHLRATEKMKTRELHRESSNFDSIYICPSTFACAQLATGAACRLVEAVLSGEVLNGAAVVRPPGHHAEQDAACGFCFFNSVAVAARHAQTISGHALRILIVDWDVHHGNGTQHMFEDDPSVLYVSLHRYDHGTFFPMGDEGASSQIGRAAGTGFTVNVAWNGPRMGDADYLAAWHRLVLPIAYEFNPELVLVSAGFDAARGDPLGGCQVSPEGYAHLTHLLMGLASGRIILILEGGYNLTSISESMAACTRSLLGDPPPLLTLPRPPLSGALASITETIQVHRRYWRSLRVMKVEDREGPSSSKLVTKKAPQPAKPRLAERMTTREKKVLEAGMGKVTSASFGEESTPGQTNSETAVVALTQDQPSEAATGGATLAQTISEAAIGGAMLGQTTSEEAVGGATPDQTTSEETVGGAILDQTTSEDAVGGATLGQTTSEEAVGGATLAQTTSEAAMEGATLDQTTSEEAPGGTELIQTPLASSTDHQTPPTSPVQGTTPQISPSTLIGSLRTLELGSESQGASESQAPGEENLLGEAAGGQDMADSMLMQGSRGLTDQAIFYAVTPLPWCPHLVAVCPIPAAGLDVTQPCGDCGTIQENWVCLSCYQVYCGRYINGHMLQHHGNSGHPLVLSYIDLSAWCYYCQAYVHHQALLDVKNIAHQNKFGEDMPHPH
Assay: Human HDAC enzyme inhibitor Fluor-de-Lys assay, HDAC6
Format: biochemical
Details: 1.3 nM enzyme, 2.5 μM substrate BML-KI104, 3 h pre-incubation, 60 min reaction; read-out: HDAC6_IC50
Description: Recombinant human HDAC8 (catalog number BML-SE145-0100) and HDAC10 (catalog number BML-SE559-0050) enzymes, HDAC substrates BML-KI104 and BML-KI178, and HDAC developer solutions BML-KI105 and BML-KI176 were purchased from Enzo Life Sciences (Farmingdale, NY). Recombinant human HDAC5 and HDAC11 were purchased from BPS Bioscience (San Diego, CA)(catalog numbers 50045 and 50021). Substrate Boc-Lys(TFA)-AMC was obtained from Bachem (Bupendorf, Switzerland) (catalog number 1-1985). HDAC inhibitor suberoylanilide hydroxamic acid (SAHA) was obtained from Indofine (Hillsborough Township, NJ) and trichostatin A (TSA) was obtained from Sigma-Aldrich (St. Louis, MO). […] HEPES pH 8.0 was obtained from Boston BioProducts (Ashland, MA), Tween-20 from Fisher Scientific (Hampton, NH)(catalog number BP337), TCEP from Calbiochem and 7.5% bovine serum albumin (BSA) from Life Technologies (Carlsbad, CA) (catalog number 15260037). 384-well, black assay plates were obtained from Corning (Corning, NY) (catalog number 3575).
The histone deacetylase activities of HDAC1, HDAC2, HDAC3, HDAC6, and HDAC8 were measured in modified Fluor-de-Lys assays in 384-well format. In this assay, HDAC enzymes are initially incubated with an ε-acetyl (or -trifluoroacetyl)-L-lysine-containing substrate with a C-terminal amide having aminomethylcoumarin as the amine component. HDACs cleave the ε-acetyl group, rendering the resulting product susceptible to AMC cleavage by trypsin. The released AMC is then detected by its fluorescence.
The HDAC 1, 2 assays employed buffer A, which contained 20 mM HEPES, pH 8.0, 1 mM MgCl2, 137 mM NaCl, 2.7 mM KCl, 0.05% BSA. The HDAC3/SMRT assay employed buffer B, consisting of 20 mM HEPES, pH 8.0, 1 mM MgCl2, 50 mM NaCl, 2.7 mM KCl, 0.05% BSA, 0.005% Tween 20, and 10 μM IP4. The HDAC6 assay employed buffer C, consisting of 20 mM HEPES, pH 8.0, 1 mM MgCl2, 137 mM NaCl, 2.7 mM KCl, 0.5 mM TCEP (Calbiochem) and 0.05% BSA. The HDAC8 assay employed buffer D, consisting of 20 mM HEPES, pH 8.0, 1 mM MgCl2, 100 mM NaCl, 20 mM KCl, 0.1% n-octyl-β-D-glucoside (Anatrace, Maumee, OH) and 0.05% BSA. All steps were performed at room temperature (23° C.). The assay was performed by pre-incubating serial dilutions of test compounds with the target HDAC prior to initiation with substrate. Each compound was titrated in a 10-point dose response, using a 1:3 fold dilution scheme, with 0.15 ul of solution added by ECHO555 to the plate, followed by the addition of 20 μl of the appropriate HDAC isoform diluted in appropriate assay buffer. […] Final conditions used for each assay were: 1. HDAC 1, 0.3 nM total enzyme, 20 μM substrate BML-K1104; 2. HDAC 2, 1.5 nM total enzyme, 40 μM substrate BML-K1104; 3. HDAC 3/SMRT, 0.3 nM total enzyme, 20 μM substrate BML-K1104; 4. HDAC 6, 1.3 nM total enzyme, 2.5 μM substrate BML-K1104; 5. HDAC 8, 1.3 nM total enzyme, 200 μM substrate BML-K1178; the final high dose of test compound was 30 μM. For potent compounds, 900 nM was used as the final high dose. The reactions were stopped and developed by addition of 30 ul of HDAC developer solution containing a saturating level of HDAC inhibitor as follows: 1.

| SMILES | pIC50 |
| --- | --- |
| COc1cc2nc(C)ccc2cc1-c1cnc([C@H](COCCCC(=O)c2cc(C)on2)NC(=O)[C@H]2CC23CCN(C)CC3)[nH]1 [Compound 20, (1S)-N-{(1R)-1-[5-(7-methoxy-2-methylquinolin-6-yl)-1H-imidazol-2-yl]-2-[4-(5-methylisoxazol-3-yl)-4-oxobutoxy]ethyl}-6-methyl-6-azaspiro[2.5]octane-1-carboxamide] | < 6.05 |
| Cc1ccc2cc(-c3cnc([C@H](CSCCCC(=O)c4ncco4)NC(=O)[C@H]4CC45CCN(C)CC5)[nH]3)ccc2n1 [Compound 21, (1S)-6-methyl-N-[(1R)-1-[5-(2-methylquinolin-6-yl)-1H-imidazol-2-yl]-2-{[4-(1,3-oxazol-2-yl)-4-oxobutyl]sulfanyl}ethyl]-6-azaspiro[2.5]octane-1-carboxamide] | 4.71 |
